Reference: the NIST ThermoML archive (doi:10.1016/j.jct.2013.09.035)
± gives the expanded uncertainty stated by the source.

Conditions: Liquid, Vibrating tube method

CCOC(F)(C(F)(F)C(F)(F)C(F)(F)F)C(F)(C(F)(F)F)C(F)(F)F (centres undefined) [2-trifluoromethyl-3-ethoxydodecafluorohexane]
mass density (283.48 K, 60000 kPa): 1751.01 ± 2.2 kg/m3
mass density (283.49 K, 3000 kPa): 1658.1 ± 0.57 kg/m3
mass density (283.49 K, 50000 kPa): 1737.96 ± 1.9 kg/m3
mass density (283.49 K, 70000 kPa): 1762.23 ± 2.5 kg/m3
mass density (283.5 K, 5000 kPa): 1662.38 ± 0.61 kg/m3
mass density (283.5 K, 10000 kPa): 1672.98 ± 0.72 kg/m3
mass density (283.5 K, 30000 kPa): 1709.09 ± 1.3 kg/m3
mass density (283.5 K, 40000 kPa): 1724.44 ± 1.6 kg/m3
mass density (283.5 K, 80000 kPa): 1773.1 ± 2.9 kg/m3
mass density (283.5 K, 90000 kPa): 1783.39 ± 3.2 kg/m3
mass density (283.51 K, 100 kPa): 1652.11 ± 0.52 kg/m3
mass density (283.51 K, 1000 kPa): 1653.72 ± 0.54 kg/m3
mass density (283.51 K, 15000 kPa): 1682.71 ± 0.84 kg/m3
mass density (283.51 K, 20000 kPa): 1691.9 ± 0.98 kg/m3
mass density (283.51 K, 25000 kPa): 1701.13 ± 1.1 kg/m3
mass density (283.52 K, 100000 kPa): 1793.19 ± 3.6 kg/m3
mass density (293.04 K, 40000 kPa): 1708.75 ± 1.6 kg/m3
mass density (293.04 K, 50000 kPa): 1723.04 ± 1.9 kg/m3
mass density (293.04 K, 70000 kPa): 1748.33 ± 2.5 kg/m3
mass density (293.04 K, 90000 kPa): 1770.03 ± 3.2 kg/m3
mass density (293.04 K, 100000 kPa): 1780.11 ± 3.5 kg/m3
mass density (293.05 K, 100 kPa): 1631.62 ± 0.52 kg/m3
mass density (293.05 K, 1000 kPa): 1633.93 ± 0.54 kg/m3
mass density (293.05 K, 3000 kPa): 1638.93 ± 0.57 kg/m3
mass density (293.05 K, 5000 kPa): 1643.69 ± 0.61 kg/m3
mass density (293.05 K, 10000 kPa): 1654.94 ± 0.7 kg/m3
mass density (293.05 K, 15000 kPa): 1665.37 ± 0.82 kg/m3
mass density (293.05 K, 20000 kPa): 1675.05 ± 0.96 kg/m3
mass density (293.05 K, 25000 kPa): 1684.16 ± 1.1 kg/m3
mass density (293.05 K, 30000 kPa): 1692.79 ± 1.2 kg/m3
mass density (293.05 K, 60000 kPa): 1736.39 ± 2.2 kg/m3
mass density (293.05 K, 80000 kPa): 1759.65 ± 2.8 kg/m3
mass density (302.88 K, 100 kPa): 1610.41 ± 0.52 kg/m3
mass density (302.88 K, 1000 kPa): 1612.92 ± 0.54 kg/m3
mass density (302.88 K, 3000 kPa): 1618.33 ± 0.57 kg/m3
mass density (302.88 K, 10000 kPa): 1635.7 ± 0.7 kg/m3
mass density (302.88 K, 60000 kPa): 1721.46 ± 2.1 kg/m3
mass density (302.89 K, 5000 kPa): 1623.52 ± 0.6 kg/m3
mass density (302.89 K, 15000 kPa): 1646.85 ± 0.8 kg/m3
mass density (302.89 K, 20000 kPa): 1657.18 ± 0.94 kg/m3
mass density (302.89 K, 25000 kPa): 1666.89 ± 1.1 kg/m3
mass density (302.89 K, 30000 kPa): 1676.01 ± 1.2 kg/m3
mass density (302.89 K, 40000 kPa): 1692.64 ± 1.5 kg/m3
mass density (302.89 K, 50000 kPa): 1707.74 ± 1.8 kg/m3
mass density (302.89 K, 70000 kPa): 1733.98 ± 2.5 kg/m3
mass density (302.89 K, 80000 kPa): 1745.75 ± 2.8 kg/m3
mass density (302.89 K, 90000 kPa): 1756.68 ± 3.1 kg/m3
mass density (302.89 K, 100000 kPa): 1767.03 ± 3.5 kg/m3
mass density (313.15 K, 90000 kPa): 1744.34 ± 3.1 kg/m3
mass density (313.16 K, 3000 kPa): 1598.14 ± 0.57 kg/m3
mass density (313.16 K, 15000 kPa): 1628.94 ± 0.79 kg/m3
mass density (313.16 K, 20000 kPa): 1639.8 ± 0.92 kg/m3
mass density (313.16 K, 30000 kPa): 1659.7 ± 1.2 kg/m3
mass density (313.16 K, 40000 kPa): 1677.38 ± 1.5 kg/m3
mass density (313.16 K, 60000 kPa): 1707.63 ± 2.1 kg/m3
mass density (313.17 K, 100 kPa): 1589.56 ± 0.53 kg/m3
mass density (313.17 K, 1000 kPa): 1592.21 ± 0.54 kg/m3
mass density (313.17 K, 10000 kPa): 1616.81 ± 0.68 kg/m3
mass density (313.17 K, 25000 kPa): 1650.1 ± 1.1 kg/m3
mass density (313.17 K, 50000 kPa): 1693.17 ± 1.8 kg/m3
mass density (313.17 K, 70010 kPa): 1720.7 ± 2.4 kg/m3
mass density (313.17 K, 80000 kPa): 1733 ± 2.7 kg/m3
mass density (313.17 K, 100000 kPa): 1755.06 ± 3.4 kg/m3
mass density (313.18 K, 5000 kPa): 1603.66 ± 0.6 kg/m3
mass density (323.04 K, 5000 kPa): 1585.04 ± 0.6 kg/m3
mass density (323.04 K, 10000 kPa): 1599.21 ± 0.68 kg/m3
mass density (323.04 K, 15000 kPa): 1612.03 ± 0.77 kg/m3
mass density (323.04 K, 20000 kPa): 1623.79 ± 0.9 kg/m3
mass density (323.04 K, 25000 kPa): 1634.67 ± 1 kg/m3
mass density (323.04 K, 30000 kPa): 1644.88 ± 1.2 kg/m3
mass density (323.04 K, 40000 kPa): 1663.35 ± 1.5 kg/m3
mass density (323.04 K, 50000 kPa): 1679.91 ± 1.8 kg/m3
mass density (323.04 K, 60000 kPa): 1694.93 ± 2.1 kg/m3
mass density (323.04 K, 70000 kPa): 1708.52 ± 2.4 kg/m3
mass density (323.04 K, 80000 kPa): 1721.13 ± 2.7 kg/m3
mass density (323.04 K, 90000 kPa): 1732.9 ± 3 kg/m3
mass density (323.04 K, 100000 kPa): 1743.96 ± 3.4 kg/m3
mass density (323.05 K, 1000 kPa): 1572.54 ± 0.54 kg/m3
mass density (323.05 K, 3000 kPa): 1578.97 ± 0.57 kg/m3
mass density (323.06 K, 100 kPa): 1569.59 ± 0.57 kg/m3
mass density (332.94 K, 15000 kPa): 1591.88 ± 0.76 kg/m3
mass density (332.94 K, 20000 kPa): 1604.4 ± 0.87 kg/m3
mass density (332.94 K, 25000 kPa): 1615.92 ± 1 kg/m3
mass density (332.94 K, 30000 kPa): 1626.63 ± 1.1 kg/m3
mass density (332.94 K, 40000 kPa): 1646.05 ± 1.4 kg/m3
mass density (332.94 K, 50000 kPa): 1663.31 ± 1.7 kg/m3
mass density (332.94 K, 60000 kPa): 1678.97 ± 2 kg/m3
mass density (332.94 K, 70000 kPa): 1693.19 ± 2.3 kg/m3
mass density (332.94 K, 80000 kPa): 1706.27 ± 2.6 kg/m3
mass density (332.94 K, 90000 kPa): 1718.48 ± 3 kg/m3
mass density (332.94 K, 100000 kPa): 1729.78 ± 3.3 kg/m3
mass density (332.95 K, 3000 kPa): 1556.26 ± 0.57 kg/m3
mass density (332.95 K, 5000 kPa): 1562.89 ± 0.59 kg/m3
mass density (332.95 K, 10000 kPa): 1578.13 ± 0.67 kg/m3
mass density (332.96 K, 1000 kPa): 1549.29 ± 0.55 kg/m3
mass density (332.97 K, 100 kPa): 1546.01 ± 0.53 kg/m3
mass density (342.55 K, 100 kPa): 1525.56 ± 0.56 kg/m3
mass density (342.56 K, 1000 kPa): 1529.11 ± 0.56 kg/m3
mass density (342.56 K, 3000 kPa): 1536.69 ± 0.58 kg/m3
mass density (342.56 K, 5000 kPa): 1543.86 ± 0.59 kg/m3
mass density (342.56 K, 10000 kPa): 1560.31 ± 0.66 kg/m3
mass density (342.57 K, 15000 kPa): 1574.95 ± 0.75 kg/m3
mass density (342.57 K, 20000 kPa): 1588.2 ± 0.85 kg/m3
mass density (342.57 K, 25000 kPa): 1600.4 ± 0.98 kg/m3
mass density (342.57 K, 30000 kPa): 1611.69 ± 1.1 kg/m3
mass density (342.57 K, 40000 kPa): 1632.02 ± 1.4 kg/m3
mass density (342.57 K, 50000 kPa): 1650.06 ± 1.7 kg/m3
mass density (342.57 K, 60000 kPa): 1666.29 ± 2 kg/m3
mass density (342.57 K, 70000 kPa): 1680.92 ± 2.3 kg/m3
mass density (342.57 K, 80000 kPa): 1694.39 ± 2.6 kg/m3
mass density (342.57 K, 90000 kPa): 1706.96 ± 2.9 kg/m3
mass density (342.57 K, 100000 kPa): 1718.69 ± 3.2 kg/m3
mass density (352.56 K, 100 kPa): 1503.72 ± 0.59 kg/m3
mass density (352.56 K, 1000 kPa): 1507.64 ± 0.58 kg/m3
mass density (352.57 K, 3000 kPa): 1515.99 ± 0.59 kg/m3
mass density (352.57 K, 5000 kPa): 1523.8 ± 0.59 kg/m3
mass density (352.57 K, 10000 kPa): 1541.62 ± 0.66 kg/m3
mass density (352.57 K, 15000 kPa): 1557.31 ± 0.74 kg/m3
mass density (352.57 K, 20000 kPa): 1571.45 ± 0.83 kg/m3
mass density (352.57 K, 25000 kPa): 1584.35 ± 0.96 kg/m3
mass density (352.57 K, 30000 kPa): 1596.28 ± 1.1 kg/m3
mass density (352.57 K, 40000 kPa): 1617.61 ± 1.4 kg/m3
mass density (352.57 K, 50000 kPa): 1636.45 ± 1.6 kg/m3
mass density (352.57 K, 70000 kPa): 1668.54 ± 2.3 kg/m3
mass density (352.58 K, 60000 kPa): 1653.3 ± 1.9 kg/m3
mass density (352.58 K, 80000 kPa): 1682.53 ± 2.6 kg/m3
mass density (352.58 K, 90000 kPa): 1695.44 ± 2.9 kg/m3
mass density (352.58 K, 100000 kPa): 1707.52 ± 3.2 kg/m3
mass density (362.59 K, 5000 kPa): 1503.25 ± 0.61 kg/m3
mass density (362.59 K, 10000 kPa): 1522.52 ± 0.66 kg/m3
mass density (362.59 K, 15000 kPa): 1539.4 ± 0.73 kg/m3
mass density (362.6 K, 100 kPa): 1481.19 ± 0.59 kg/m3
mass density (362.6 K, 1000 kPa): 1485.52 ± 0.6 kg/m3
mass density (362.6 K, 3000 kPa): 1494.68 ± 0.6 kg/m3
mass density (362.6 K, 20000 kPa): 1554.46 ± 0.82 kg/m3
mass density (362.6 K, 25000 kPa): 1568.1 ± 0.94 kg/m3
mass density (362.6 K, 30000 kPa): 1580.67 ± 1.1 kg/m3
mass density (362.6 K, 40000 kPa): 1603.06 ± 1.3 kg/m3
mass density (362.6 K, 50000 kPa): 1622.7 ± 1.6 kg/m3
mass density (362.6 K, 60000 kPa): 1640.27 ± 1.9 kg/m3
mass density (362.6 K, 70000 kPa): 1656.03 ± 2.2 kg/m3
mass density (362.6 K, 80000 kPa): 1670.49 ± 2.5 kg/m3
mass density (362.6 K, 90000 kPa): 1683.83 ± 2.8 kg/m3
mass density (362.6 K, 100000 kPa): 1696.22 ± 3.1 kg/m3
